Data taken from ChEMBL document CHEMBL4184283, “High expression of class III β-tubulin has no impact on functional cancer cell growth inhibition of a series of key vinblastine analogs” (Bioorg Med Chem Lett, 2018).

Columns and labels:
L1210 = assay: Growth inhibition of mouse L1210 cells after 72 hrs by phosphatase assay; format: functional, cell-based; details: L1210, 72 h
HCT-116 = assay: Growth inhibition of human HCT116 cells after 72 hrs by phosphatase assay; format: functional, cell-based; details: HCT-116, 72 h
HCT-116/VM46 = assay: Growth inhibition of human HCT116/VM46 cells over-expressing P-gp after 72 hrs by phosphatase assay; format: functional, cell-based; details: HCT-116/VM46, 72 h
A549 = assay: Growth inhibition of human A549 cells; format: functional, cell-based
[1] = Growth inhibition of human A549-T24 cells over-expressing class-3 beta-tubulin; format: functional
[2] = Selectivity ratio of IC50 for human HCT116/VM46 cells over-expressing P-gp to IC50 for human HCT116 cells; format: functional
[3] = Selectivity ratio of IC50 for human A549-T24 cells over-expressing class-3 beta-tubulin to IC50 for human A549 cells; format: functional

| SMILES | IC50 (L1210) [nM] | IC50 (HCT-116) [nM] | IC50 (HCT-116/VM46) [nM] | IC50 (A549) [nM] | IC50 [1] [nM] | Ratio IC50 [2] | Ratio IC50 [3] |
| --- | --- | --- | --- | --- | --- | --- | --- |
| CC[C@]1(NC(=O)c2ccc3c(c2)CCCC3)C[C@H]2CN(CCc3c([nH]c4ccc(F)cc34)[C@@](C(=O)OC)(c3cc4c(cc3OC)N(C)[C@H]3[C@@](O)(C(=O)OC)[C@H](OC(C)=O)[C@]5(CC)C=CCN6CC[C@]43[C@@H]65)C2)C1 | 3 | 4.9 | 8.7 | 7.6 | 6.5 | 1.8 | <1 |
| CC[C@]1(O)C[C@H]2CN(CCc3c([nH]c4ccc(F)cc34)[C@@](C(=O)OC)(c3cc4c(cc3OC)N(C)[C@H]3[C@@](O)(C(=O)OC)[C@H](OC(C)=O)[C@]5(CC)C=CCN6CC[C@]43[C@@H]65)C2)C1 | – | – | – | 2.9 | 0.8 | 100 | <1 |
| CC[C@]1(NC(=O)N2Cc3ccc(NC(=O)c4cnccn4)cc3C2)C[C@H]2CN(CCc3c([nH]c4ccc(F)cc34)[C@@](C(=O)OC)(c3cc4c(cc3OC)N(C)[C@H]3[C@@](O)(C(=O)OC)[C@H](OC(C)=O)[C@]5(CC)C=CCN6CC[C@]43[C@@H]65)C2)C1 | 0.06 | 0.07 | 0.83 | 0.19 | 0.09 | 12 | <1 |
| CC[C@]1(NC(=O)N2Cc3ccc(NC(=O)c4cccnn4)cc3C2)C[C@H]2CN(CCc3c([nH]c4ccc(F)cc34)[C@@](C(=O)OC)(c3cc4c(cc3OC)N(C)[C@H]3[C@@](O)(C(=O)OC)[C@H](OC(C)=O)[C@]5(CC)C=CCN6CC[C@]43[C@@H]65)C2)C1 | 0.06 | 0.07 | 0.87 | 0.53 | 0.26 | 12 | <1 |

The remaining compounds from weak to strong by IC50 (A549), led by results:

| IC50 (L1210) [nM] | IC50 (HCT-116) [nM] | IC50 (HCT-116/VM46) [nM] | IC50 (A549) [nM] | SMILES | IC50 [1] [nM] | Ratio IC50 [2] | Ratio IC50 [3] |
| --- | --- | --- | --- | --- | --- | --- | --- |
| – | – | – | 7.7 | CC[C@]1(O)C[C@@H]2CN(CCc3c([nH]c4ccccc34)[C@@](C(=O)OC)(c3cc4c(cc3OC)N(C)[C@H]3[C@@](O)(C(=O)OC)[C@H](OC(C)=O)[C@]5(CC)C=CCN6CC[C@]43[C@@H]65)C2)C1 [VINBLASTINE] | 6.7 | – | <1 |
| – | – | > 200 | 7.1 | CC(=O)O[C@H]1C(=O)[C@@]2(C)[C@H]([C@H](OC(=O)c3ccccc3)[C@]3(O)C[C@H](OC(=O)[C@H](O)[C@@H](NC(=O)c4ccccc4)c4ccccc4)C(C)=C1C3(C)C)[C@]1(OC(C)=O)CO[C@@H]1C[C@@H]2O [PACLITAXEL] | 70 | >50 | 10 |
| 3 | 4.5 | 7.6 | 5 | CC[C@]1(NC(=O)c2ccc(C)c(C)c2)C[C@H]2CN(CCc3c([nH]c4ccc(F)cc34)[C@@](C(=O)OC)(c3cc4c(cc3OC)N(C)[C@H]3[C@@](O)(C(=O)OC)[C@H](OC(C)=O)[C@]5(CC)C=CCN6CC[C@]43[C@@H]65)C2)C1 | 2.5 | 1.7 | <1 |
| 0.4 | 0.5 | 1.8 | 1.4 | CC[C@]1(NC(=O)c2ccc3c(c2)CCCO3)C[C@H]2CN(CCc3c([nH]c4ccc(F)cc34)[C@@](C(=O)OC)(c3cc4c(cc3OC)N(C)[C@H]3[C@@](O)(C(=O)OC)[C@H](OC(C)=O)[C@]5(CC)C=CCN6CC[C@]43[C@@H]65)C2)C1 | 0.8 | 3.8 | <1 |
| 0.5 | 0.6 | 7.5 | 0.7 | CC[C@]1(NC(=O)N2Cc3ccccc3C2)C[C@H]2CN(CCc3c([nH]c4ccc(F)cc34)[C@@](C(=O)OC)(c3cc4c(cc3OC)N(C)[C@H]3[C@@](O)(C(=O)OC)[C@H](OC(C)=O)[C@]5(CC)C=CCN6CC[C@]43[C@@H]65)C2)C1 | 0.7 | 12 | 1 |
| 0.06 | 0.07 | 0.88 | 0.17 | CC[C@]1(NC(=O)N2Cc3ccc(NC(=O)c4ccncn4)cc3C2)C[C@H]2CN(CCc3c([nH]c4ccc(F)cc34)[C@@](C(=O)OC)(c3cc4c(cc3OC)N(C)[C@H]3[C@@](O)(C(=O)OC)[C@H](OC(C)=O)[C@]5(CC)C=CCN6CC[C@]43[C@@H]65)C2)C1 | 0.13 | 13 | <1 |
